Numbered stars: 1 amine (or outer) side, 2 acyl side, 3 side chain; on linkers, the order of the positions; unused ones are H or OH. Bridge positions count the residues as written; N and C are the ends. Square brackets hold non-standard residues; d marks the D form. Peptide text beside a SMILES is read from it. * marks the point of attachment. ξ: configuration not given here. X10 = CCCCCCCCCOc1ccc2cc(CC[C@H](CC(=O)[*:1])N[*:2])ccc2c1; X6 = CCCCCCCCCCCCC[C@H](CC(=O)NC(C(=O)O)C(C)O)O*; X12 = NCC(=O)Nc1cc(CC(N[*:1])C(=O)[*:2])ccc1O; X9 = CCCCCCCCCCCCC[C@H](CC(=O)[*:1])O[*:2]; X2 = NC(=O)CC(O)C(N[*:1])C(=O)[*:2]; X1 = O=C(C1C(O)CCN1[*:1])[*:2]; ξY = NC(Cc1ccc(O)cc1)C(=O)O; ξHyp = O=C(O)C1CC(O)CN1; ξOrn = NCCCC(N)C(=O)O; ξT = CC(O)C(N)C(=O)O; ξV = CC(C)C(N)C(=O)O; ξP = O=C(O)C1CCCN1; ξA = CC(N)C(=O)O; Sar = CNCC(=O)O
Tests used:
mouse hepatocytes = test: In vitro hepatotoxicity test; assay type: cell-based; conditions: mouse hepatocyte monolayers exposed 1 day, morphological evaluation
Text: The mouse hepatocytes were isolated by a collagenase digestion and cultured in microtest plates. The hepatocyte monolayers were exposed to the test Aerothricins in the culture system for 1 day. After the culture period, the hepatocytes were observed under a microscope and evaluated morphologically. The degree of the morphological alteration (degeneration) of the hepatocytes by the test Aerothricins were compared with WF 11243 and LY303366.

Candida albicans = test: In vivo antifungal efficacy, systemic candidiasis in mice; parameters: species or system Crj: CD-1 (ICR) mice; conditions: i.v., b.i.d×1 day followed by q.d.×2 days; from survival on day 14
Description: Mice of a conventional immunocompetent mouse strain, Crj: CD-1 (ICR) were used for experimental infection models of systemic candidiasis. 4 weeks old Crj: CD-1 (ICR) mice were used for systemic candidiasis by injecting Candida albicans 5×10^6 conidia/mouse via the tail vein. Treatments were given twice (0, 4 h after infection) on the first day and once daily on following 2 days for systemic candidiasis (b.i.d×1 day followed by q.d.×2 days), intravenously (i.v.). 50% of effective dose (ED50) values was calculated from the survival number at each dose on day 14.

Solubility = conditions: solvents in which soluble

For CCCCCCCCCCOc1ccc(CC[C@@H]2CC(=O)NC(C(C)O)C(=O)NC(C)C(=O)NC(Cc3ccc(O)cc3)C(=O)NC(C(C)C)C(=O)N3CC(O)CC3C(=O)NC(C(C)O)C(=O)NC(C(C)O)C(=O)N3CCC(O)C3C(=O)NC(C(O)CC(N)=O)C(=O)NCC(=O)NC(C(C)O)C(=O)NC(CCCN)C(=O)N2)cc1 (single isomer, unassigned) [Aerothricin 47], the Cytotoxicity to hepatocyte (mouse hepatocytes) was over 100 µg/mL.

For CCCCCCCCCCOc1ccc(CC[C@@H]2CC(=O)NC(C(C)O)C(=O)NC(C)C(=O)NC(Cc3ccc(O)cc3)C(=O)NC(C(C)C)C(=O)N3CC(O)CC3C(=O)NC(C(C)O)C(=O)NC(C(C)O)C(=O)N3CCC(O)C3C(=O)NC(C(O)CC(N)=O)C(=O)NCC(=O)NC(C(C)O)C(=O)NC(CCCN)C(=O)N2)cc1 (some centres unmarked) [Aerothricin 36], the “In vivo antifungal activity against systemic candidiasis in mice, ED50 on day 14” value (Candida albicans) was 0.6 mg/kg.

With CCCCCCCCCCCCC[C@H](CC(=O)NC(C(=O)O)C(C)O)OC(=O)C(CCCN)NC(=O)C(NC(=O)CNC(=O)C(NC(=O)C1C(O)CCN1C(=O)C(NC(=O)C(NC(=O)C1CC(O)CN1C(=O)C(N)C(C)C)C(C)O)C(C)O)C(O)CC(N)=O)C(C)O (some centres unmarked) [Compound (IX)] (H-[ξV][ξHyp][ξT][ξT][X1][X2]G[ξT][ξOrn]-X6) the Solubility (Solubility) was “Soluble: water, methanol, dimethylsulfoxide”.

Molecule CCCCCCCCCCCCC[C@@H]1CC(=O)NC(C(C)O)C(=O)NC(C)C(=O)NC(Cc2ccc(O)c(NC(=O)CN)c2)C(=O)NC(C(C)C)C(=O)N2CC(O)CC2C(=O)NC(C(C)O)C(=O)NC(C(C)O)C(=O)N2CCC(O)C2C(=O)NC(C(O)CC(N)=O)C(=O)NCC(=O)NC(C(C)O)C(=O)NC(CCCNC(=O)CN)C(=O)O1 (some centres unmarked) [Aerothricin 21] ([ξT][ξA][X12][ξV][ξHyp][ξT][ξT][X1][X2]G[ξT][ξOrn](Gly); linker N-C via X9) has a Cytotoxicity to hepatocyte (mouse hepatocytes) of over 100 µg/mL.

With CCCCCCCCCOc1ccc2cc(CC[C@@H]3CC(=O)NC(C(C)O)C(=O)NC(C)C(=O)NC(Cc4ccc(O)cc4)C(=O)NC(C(C)C)C(=O)N4CC(O)CC4C(=O)NC(C(C)O)C(=O)NC(C(C)O)C(=O)N4CCC(O)C4C(=O)NC(C(O)CC(N)=O)C(=O)NCC(=O)NC(C(C)O)C(=O)NC(CCCN)C(=O)N3)ccc2c1 (some centres unmarked) [Aerothricin 53] ([ξT][ξA][ξY][ξV][ξHyp][ξT][ξT][X1][X2]G[ξT][ξOrn]; linker N-C via X10) the Cytotoxicity to hepatocyte (mouse hepatocytes) was over 100 µg/mL.

CCCCCCCCCCCCC[C@@H]1CC(=O)NC(C(C)O)C(=O)NC(C)C(=O)NC(Cc2ccc(O)cc2)C(=O)NC(C(C)C)C(=O)N2CC(O)CC2C(=O)NC(C(C)O)C(=O)NC(C(C)O)C(=O)N2CCC(O)C2C(=O)NC(C(O)CC(N)=O)C(=O)NCC(=O)NC(C(C)O)C(=O)NC(CCCNC(=O)CNC)C(=O)O1 (some centres unmarked) [Aerothricin 14] ([ξT][ξA][ξY][ξV][ξHyp][ξT][ξT][X1][X2]G[ξT][ξOrn](Sar); linker N-C via X9) showed a Cytotoxicity to hepatocyte (mouse hepatocytes) of over 100 µg/mL.

With CCCCCCCCCCCCC[C@@H]1CC(=O)NC(C(C)O)C(=O)NC(C)C(=O)NC(Cc2ccc(O)cc2)C(=O)NC(C(C)C)C(=O)N2CC(O)CC2C(=O)NC(C(C)O)C(=O)NC(C(C)O)C(=O)N2CCC(O)C2C(=O)NC(C(O)CC(N)=O)C(=O)NCC(=O)NC(C(C)O)C(=O)NC(CCCNC(=O)C2CCCN2)C(=O)O1 (some centres unmarked) [Aerothricin 15] ([ξT][ξA][ξY][ξV][ξHyp][ξT][ξT][X1][X2]G[ξT][ξOrn](ξP); linker N-C via X9) the Cytotoxicity to hepatocyte (mouse hepatocytes) was over 100 µg/mL.

For CCCCCCCCCCCCC[C@@H]1CC(=O)NC(C(C)O)C(=O)NC(C)C(=O)NC(Cc2ccc(OC)cc2)C(=O)NC(C(C)C)C(=O)N2CC(O)CC2C(=O)NC(C(C)O)C(=O)NC(C(C)O)C(=O)N2CCC(O)C2C(=O)NC(C(O)CC(N)=O)C(=O)NCC(=O)NC(C(C)O)C(=O)NC(CCCN)C(=O)O1 (some centres unmarked) [Aerothricin 5] ([ξT][ξA][ξY](Me)[ξV][ξHyp][ξT][ξT][X1][X2]G[ξT][ξOrn]; linker N-C via X9), the “In vivo antifungal activity against systemic candidiasis in mice, ED50 on day 14” value (Candida albicans) was 0.3 mg/kg.
